Activity calls are given as the source filed them.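 The calls were made as follows: active = chemicals rated mutagenic or weakly mutagenic in the Salmonella bacterial test by one literature review, or positive overall by another; inconclusive = no clear call, values can overlap the other calls; inactive = the rest.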 Numbered stars: 1 amine (or outer) side, 2 acyl side, 3 side chain; on linkers, the order of the positions; unused ones are H or OH. Bridge positions count the residues as written; N and C are the ends. Square brackets hold non-standard residues; d marks the D form. Peptide text beside a SMILES is read from it. I, II: the chains in the order shown. Actinocin(9to1) = Cc1c2oc3c(C)ccc(C(=O)[*:1])c3nc-2c(C(=O)[*:2])c(N)c1=O; NMeV = CN[C@H](C(=O)O)C(C)C; Sar = CNCC(=O)O

For this data set, the system named is Salmonella typhimurium Ames mutagenicity, literature compiled. Put plainly: DSSTox (CPDBAS) Carcinogenic Potency Database Salmonella Mutagenicity. A digest of the protocol: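 Literature-compiled Salmonella result: chemical called active if rated overall "mutagenic" or "weakly mutagenic" by Zeiger or overall "positive" by the EPA Gene-Tox Program.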

Take `O=C(O)c1ccc([N+](=O)[O-])cc1`: the result was active. With `O=C(CCl)c1ccccc1` the entry was “inactive”. With `CC1(C)COC1=O` the entry was “active”; with `Cc1ccc(OP(=O)(Oc2ccc(C)cc2)Oc2ccc(C)cc2)cc1`, “inactive; active”. Under `O=C(O)CN(CCN(CC(=O)O)CC(=O)O)CC(=O)O` stands “inactive”. Take `NNCCc1ccccc1`: the outcome is “active; inactive”. With `COc1cc(-c2ccc(N=Nc3c(S(=O)(=O)O)cc4cc(S(=O)(=O)O)cc(N)c4c3O)c(OC)c2)ccc1N=Nc1c(S(=O)(=O)O)cc2cc(S(=O)(=O)O)cc(N)c2c1O`, the result was active. Under `Oc1ccccc1` stands “inactive”; under `CCCCCc1cc(O)c2c(c1)OC(C)(C)[C@@H]1CCC(C)=C[C@@H]21`, “inactive; active”; under `c1ccccc1`, “inactive; active”. Consider `CN(CCCC(=O)O)N=O`, for which the outcome was inactive. With `FC(F)(F)CCl` the entry was “inactive”; with `OC(O)C(Cl)(Cl)Cl`, “active”; with `Cc1cc(C)c(S(=O)(=O)O)cc1N=Nc1cc(S(=O)(=O)O)c2ccccc2c1O`, “inactive; active”. As to `C1OC1C1CO1` (stereo not drawn), the outcome was active. On to `NNC(=O)c1ccncc1`, for which the outcome is “active; inactive”. On to `Oc1cc2c(cc1O)[C@H]1c3ccc(O)c(O)c3OC[C@@]1(O)C2`, for which the outcome is “inactive; active”.

Consider `C=C(C)C#N`, for which the outcome is “inactive; active”. With `CC(=O)OC(OC(C)=O)c1ccc([N+](=O)[O-])o1` the entry was “active”; with `COP(=O)(OC)OC`, “active; inactive”; with `C[C@@H]1O[C@@H](OC[C@H]2O[C@@H](Oc3c(-c4ccc(O)c(O)c4)oc4cc(O)cc(O)c4c3=O)[C@H](O)[C@@H](O)[C@@H]2O)[C@H](O)[C@H](O)[C@H]1O`, “active; inactive”.

Turning to `CC(O)c1ccccc1` (stereo not drawn), the outcome was “inactive; active”. Under `O=C1c2ccccc2C(=O)N1SC(Cl)(Cl)Cl` stands “active”; under `O=C1c2ccccc2-c2ccc3c4c(ccc1c24)-c1ccccc1C3=O`, “inactive; active”; under `Clc1ccc2c(c1)Oc1ccc(Cl)cc1O2`, “inactive”. As for `C=C(C)[C@H]1CC=C(C)CC1`, the outcome was “inactive; active”. Turning to `Cn1cnc([N+](=O)[O-])c1Sc1ncnc2nc[nH]c12`, the result was active. Take `CCCCN(CCCCO)N=O`: the outcome was “active; inactive”. Regarding `Cc1c2oc3c(C)ccc(C(=O)N[C@@H]4C(=O)N[C@H](C(C)C)C(=O)N5CCC[C@H]5C(=O)N(C)CC(=O)N(C)[C@@H](C(C)C)C(=O)O[C@@H]4C)c3nc-2c(C(=O)N[C@@H]2C(=O)N[C@H](C(C)C)C(=O)N3CCC[C@H]3C(=O)N(C)CC(=O)N(C)[C@@H](C(C)C)C(=O)O[C@@H]2C)c(N)c1=O` (I: T[dV]P[Sar][NMeV] / II: T[dV]P[Sar][NMeV]; ester I:1-I:C, II:1-II:C; linker I:N-II:N via Actinocin(9to1)), the outcome was “inactive; active”. In the case of `c1ccc(C2CO2)cc1` (stereo not drawn), the outcome was “active; inactive”.

With `IC(I)I`, the outcome was active. Consider `C1N2CN3CN1CN(C2)C3`, for which the result was active. Consider `CSCCC(N)C(=O)O` (stereo not drawn), for which the outcome is “inactive; active”.

As for `CCCCC(CC)CO` (stereo not drawn), the outcome was “inactive; active”. `Nc1ccc(N)c2c1C(=O)c1c(N)ccc(N)c1C2=O`: the outcome was active. For `CCN(CC)C(=S)S[Te](SC(=S)N(CC)CC)(SC(=S)N(CC)CC)SC(=S)N(CC)CC`, the result was inactive.

On to `NC(=O)CCCCC(N)=O`, for which the outcome was inactive. As for `NCCNc1cccc2ccccc12`, the outcome was active.

`NC(=O)N/N=C/c1ccc([N+](=O)[O-])o1`: the result was active. On to `CCCCN(N=O)C(=N)N[N+](=O)[O-]`, for which the outcome was active. In the case of `CCN(CC)N=O`, the outcome is “active; inactive”. With `CC(=O)Nc1ccc(C(=O)CCl)cc1` the entry was “active”; with `O=NN1CCNCC1`, “active”; with `Clc1cc2c(cc1Cl)Oc1cc(Cl)c(Cl)cc1O2`, “inactive; active”. Under `O=C(O)CN(CC(=O)O)CC(=O)O` stands “inactive; active”; under `OCC(O)CCl` (stereo not drawn), “active; inactive”; under `S=[Se]`, “active”. Under `CCCCOCCO` stands “inactive; active”. Turning to `ClCc1ccccc1`, the result was active.

On to `CCCCCC`, for which the outcome was inactive. Under `Oc1ccccc1O` stands “inactive; active”; under `NCC(=O)O`, “inactive”. For the molecule `CCC1CO1` (stereo not drawn), the outcome was active.

Take `O=C(O)c1ccccc1`: the result was inactive. For `Nc1c(Cl)c(Cl)nc(C(=O)O)c1Cl`, the outcome is “inactive; active”. With `N[C@@H](Cc1c[nH]c2ccccc12)C(=O)O` the entry was “inactive; active”. For the molecule `CCCN(CCC)c1c([N+](=O)[O-])cc(C(F)(F)F)cc1[N+](=O)[O-]`, the outcome was active. With `ClC1=C(Cl)[C@]2(Cl)[C@@H]3[C@@H]4C[C@@H]([C@H]5O[C@@H]45)[C@@H]3[C@@]1(Cl)C2(Cl)Cl` the entry was “inactive; active”; with `OCl`, “inactive; active”; with `C=CC(OC(C)=O)c1ccc2c(c1)OCO2` (stereo not drawn), “active”.

Turning to `CN(CCc1ccccc1)N=O`, the outcome was active. As to `C#C[C@]1(O)CC[C@H]2[C@@H]3CCc4cc(OC)ccc4[C@H]3CC[C@@]21C`, the result was inactive.

With `CC12CCC(CC1)C(C)(C)O2`, the outcome was “inactive; active”. On to `O=NN1CCCCC1`, for which the result was active. With `CC#N` the entry was “inactive”.

Turning to `O=NN1CC=CCC1`, the outcome was active. As to `COP(=S)(OC)SCn1nnc2ccccc2c1=O`, the outcome is “active; inactive”. With `Cc1cc(C(C)(C)C)c(O)c(C(C)(C)C)c1` the entry was “inactive”. Under `CCO` stands “inactive; active”. With `Oc1cccc(O)c1` the entry was “inactive”. Turning to `Nc1ccc(O)c(N)c1`, the outcome was “active; inactive”.

With `CCCCOC(=O)c1ccccc1C(=O)OCc1ccccc1`, the outcome was inactive.

With `CCN(CC)C(=S)S`, the outcome was inactive. Turning to `Nc1ccc2ccccc2c1`, the outcome was “active; inactive”.

Consider `CC(=O)NNc1ccccc1`, for which the result was active. For `CN(N=O)C(N)=O`, the outcome was active. With `Nc1cc([N+](=O)[O-])ccc1O` the entry was “active”.

Take `O=C(O)COc1cc(Cl)c(Cl)cc1Cl`: the outcome was “inactive; active”. Under `Nc1ccc([N+](=O)[O-])cc1N` stands “active”; under `COc1ccc(N)cc1N`, “active; inactive”; under `Cc1ccccc1S(N)(=O)=O`, “inactive”. In the case of `NC(N)=S`, the outcome is “inactive; active”. With `O=S(=O)(c1ccc(Cl)cc1)c1ccc(Cl)cc1` the entry was “inactive”; with `COC(=O)[C@H]1[C@H]2C[C@@H]3c4[nH]c5cc(OC)ccc5c4CCN3C[C@H]2C[C@@H](OC(=O)c2cc(OC)c(OC)c(OC)c2)[C@@H]1OC`, “inactive”; with `O=C1c2cccc(O)c2C(=O)c2c(O)cccc21`, “active”. As for `CC(CCl)OC(C)CCl` (stereo not drawn), the outcome was active. Under `CC(I)C1OCC(CO)O1` (stereo not drawn) stands “active”; under `OB(O)O`, “inactive”.
